Laboratory results reported in the supplement of paper PMC8253809.

Key:
Assay in all cases: area under dose-response curve of % growth inhibition (log2 RLU vs DMSO / staurosporine), 1e-11 to 1e-4 M (% x log10 M); higher = more growth inhibition
HGGX6 = system: HGGX6 (H3.3 G34R paediatric high-grade glioma line)
Summary of the method: (§1)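 Patient-derived pHGG/DIPG cell lines and astrocytes were plated in 384-well plates coated with 1% Geltrex and treated in triplicate with a 10-point threefold dilution series whose mean top concentration was 35 μM, for 7 days (3 days for iAstro) at 37 °C and 5% CO2. CellTiter-Glo luminescence was log2-transformed and scaled on each plate to % activity between solvent and positive controls. Area under the curve came from the trapezoid rule applied to a fitted log-logistic curve, or to a smoothing spline where the sigmoid fit failed.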

DIPGX29 = system: DIPGX29 (H3.3 K27M diffuse intrinsic pontine glioma line)
Summary of the method: as §1

HGGX39 = system: HGGX39 (paediatric high-grade glioma line)
Summary of the method: as §1

DIPGX37 = system: DIPGX37 (H3.3 K27M diffuse intrinsic pontine glioma line)
Summary of the method: as §1

| Structure (SMILES) | area under dose-response curve (HGGX6) | area under dose-response curve (DIPGX29) | area under dose-response curve (HGGX39) | area under dose-response curve (DIPGX37) |
| --- | --- | --- | --- | --- |
| Nc1ncnc2c1c(COc1cccc(Cl)c1)nn2C1CCOCC1 | 14.3 | 10 | 23.5 | 32.2 |
| O=C(O)c1ccc(CN2CCC(CN[C@@H]3C[C@H]3c3ccccc3)CC2)cc1 | 0.903 | 1.9 | 2.17 | 20.1 |
| CN(N=O)C(=O)N[C@H]1C(O)O[C@H](CO)[C@@H](O)[C@@H]1O (mixture of isomers) [STREPTOZOSIN] | 5.51 | 11 | 7.25 | 8.39 |
| Nc1ncn([C@@H]2O[C@H](CO)[C@@H](O)[C@H]2O)c(=O)n1 [5-AZACYTIDINE] | 12.1 | 12.5 | 17.6 | 18.2 |
| Nc1nc(=O)n([C@H]2C[C@H](O)[C@@H](CO)O2)cc1F [5-FLUORODEOXYCYTIDINE] | 28.8 | 42.2 | 39.7 | 10.7 |
| O=c1[nH]cc(F)c(=O)[nH]1 [5-FLUOROURACIL] | 25.2 | 17.6 | 10.6 | 4.4 |
| COc1cc2c(cc1OCCCN1CCCC1)N=C(N)C21CCC1 [A-366] | 19.9 | 9.92 | 9.97 | 19 |
| CC(=O)O[C@H]1CC[C@@]2(C)C(=CC[C@@H]3[C@@H]2CC[C@]2(C)C(c4cccnc4)=CC[C@@H]32)C1 [ABIRATERONE ACETATE] | 0 | 0 | 6.95 | 20.1 |
| CCC1(c2ccc(N)cc2)CCC(=O)NC1=O (stereo not drawn) [AMINOGLUTETHIMIDE] | 14.3 | 7.58 | 3.33 | 4.75 |
| CC(C)(C#N)c1cc(Cn2cncn2)cc(C(C)(C)C#N)c1 [ANASTROZOLE] | 1.46 | 7.52 | 1.48 | 5.71 |
| CO[C@H]1O[C@@H]2O[C@@]3(C)CC[C@H]4[C@H](C)CC[C@@H]([C@H]1C)[C@@]24OO3 [ARTEMETHER] | 17.6 | 5.53 | 14.4 | 3.95 |
| CCN(C(=O)CO)[C@H]1CN(/C(=N\C#N)Nc2cccc(OC(F)F)c2)N=C1c1ccc(Cl)c(Cl)c1 [BAY598] | 8.24 | 18.1 | 10.8 | 16.3 |
| Cn1cc(CCn2cnc(-c3cnn(C)c3)c2-c2ccc(C#N)cc2)cn1 [BAZ2-ICR] | 14.6 | 8.96 | 16.5 | 22.9 |
| C[C@H]1C[C@H]2[C@@H]3CCC4=CC(=O)C=C[C@]4(C)[C@@]3(F)[C@@H](O)C[C@]2(C)[C@@]1(O)C(=O)CO [BETAMETHASONE] | 16.4 | 23.1 | 11.8 | 10.5 |
| C=C(c1ccc(C(=O)O)cc1)c1cc2c(cc1C)C(C)(C)CCC2(C)C [BEXAROTENE] | 13.2 | 21.8 | 28.4 | 6.14 |
| COc1cc(-c2cn(C)c(=O)c3cnccc23)c(OC)cc1CN(C)C [BI-9564] | 3.53 | 12.6 | 5.33 | 11.6 |
| C/C(=C\C(=O)Nc1ccccc1C(=O)O)c1ccc2ccccc2c1 [BIBR-1532] | 8.79 | 0 | 0 | 20.5 |
| CC(=O)Oc1ccc(C(c2ccc(OC(C)=O)cc2)c2ccccn2)cc1 [BISACODYL] | 10.4 | 2.56 | 27.8 | 11.1 |
| O=c1[nH]c(=O)n([C@H]2C[C@H](O)[C@@H](CO)O2)cc1/C=C/Br [BRIVUDINE] | 2.8 | 6.05 | 1.13 | 9.7 |
| CCCC1O[C@@H]2C[C@H]3[C@@H]4CCC5=CC(=O)C=C[C@]5(C)[C@H]4[C@@H](O)C[C@]3(C)[C@]2(C(=O)CO)O1 (stereo partly drawn) [BUDESONIDE] | 6.8 | 35.7 | 11.8 | 19.3 |
| CCCCCCNC(=O)n1cc(F)c(=O)[nH]c1=O [CARMOFUR] | 15.3 | 20.1 | 20.2 | 30.3 |

| Structure (SMILES) | area under dose-response curve (HGGX6) | area under dose-response curve (DIPGX29) | area under dose-response curve (HGGX39) | area under dose-response curve (DIPGX37) |
| --- | --- | --- | --- | --- |
| O=C(O)CCCc1ccc(N(CCCl)CCCl)cc1 [CHLORAMBUCIL] | 18.3 | 25.8 | 20.8 | 15.9 |
| Nc1nc(Cl)nc2c1ncn2[C@H]1C[C@H](O)[C@@H](CO)O1 [CLADRIBINE] | 39.3 | 54.8 | 40.8 | 32.4 |
| Nc1ccn([C@@H]2O[C@H](CO)[C@@H](O)[C@@H]2O)c(=O)n1 [CYTARABINE] | 15.6 | 42.9 | 30.6 | 23.3 |
| CN(C)/N=N/c1[nH]cnc1C(N)=O [DACARBAZINE] | 16.5 | 6.29 | 19.3 | 17.2 |
| Nc1ncn([C@H]2C[C@H](O)[C@@H](CO)O2)c(=O)n1 [DECITABINE] | 3.81 | 4.32 | 7.33 | 9.77 |
| CC(=O)O[C@@]12CO[C@@H]1C[C@H](O)[C@@]1(C)C(=O)[C@H](O)C3=C(C)[C@@H](OC(=O)[C@H](O)[C@@H](NC(=O)OC(C)(C)C)c4ccccc4)C[C@@](O)([C@@H](OC(=O)c4ccccc4)[C@H]21)C3(C)C [DOCETAXEL] | 86.7 | 55.8 | 120 | 56 |
| COc1cc([C@@H]2c3cc4c(cc3[C@@H](O[C@@H]3O[C@@H]5CO[C@@H](C)O[C@H]5[C@H](O)[C@H]3O)[C@H]3COC(=O)[C@H]23)OCO4)cc(OC)c1O [ETOPOSIDE] | 25.4 | 39.6 | 33.1 | 14.2 |
| Cc1cc(C#N)cc(C)c1Oc1nc(Nc2ccc(C#N)cc2)nc(N)c1Br [ETRAVIRINE] | 9.91 | 24.2 | 18.9 | 10.8 |
| CS(=O)(=O)c1ccc([C@@H](O)[C@@H](CF)NC(=O)C(Cl)Cl)cc1 [FLORFENICOL] | 4.4 | 11.3 | 15.6 | 10.6 |
| Nc1nc(F)nc2c1ncn2[C@@H]1O[C@H](COP(=O)(O)O)[C@@H](O)[C@@H]1O [FLUDARABINE PHOSPHATE] | 6.46 | 32.1 | 10.3 | 39.7 |
| N[C@H](CCC(=O)N[C@@H](Cc1c[nH]c2ccccc12)C(=O)O)C(=O)O [GOLOTIMOD] | 5.25 | 8.23 | 0.705 | 15.2 |
| CCCOc1ccn2c(C(C)=O)cc(-c3ccccc3S(C)(=O)=O)c2c1 [GSK2801] | 21.4 | 19.1 | 10.4 | 8.52 |
| COc1ccccc1C(=O)Nc1cc2c(cc1N1CCCCC1)n(C)c(=O)n2C [GSK-5959] | 45.8 | 8.32 | 41.9 | 76.9 |
| c1ccc([C@@H]2C[C@H]2NC2CCNCC2)cc1 [GSK-LSD1] | 0 | 0 | 0 | 5.85 |
| Nc1ncn([C@H]2C[C@H](OP(=O)(O)OC[C@H]3O[C@@H](n4cnc5c(=O)[nH]c(N)nc54)C[C@@H]3O)[C@@H](CO)O2)c(=O)n1 [GUADECITABINE] | 0 | 0 | 0 | 16.4 |
| CCN(CCO)CCCC(C)Nc1ccnc2cc(Cl)ccc12 (stereo not drawn) [HYDROXYCHLOROQUINE] | 1.95 | 5.15 | 0 | 8.17 |
| CCC(=O)N1CCOc2c(cc(-c3ccc(OC)c(OC)c3)cc2OC[C@H]2CCCN(C)C2)C1 [I-CBP112] | 16.4 | 14.1 | 2.35 | 18 |
| COc1cc(C(C)=O)ccc1OCCCN1CCC(c2noc3cc(F)ccc23)CC1 [ILOPERIDONE] | 5.98 | 15.1 | 10.3 | 13.2 |
| O=C(O)c1ccc(O)c2ncccc12 [IOX1] | 5.89 | 3.7 | 2.63 | 9.36 |
| O=C(O)CNC(=O)c1c(O)c2ccccc2n(Cc2ccccc2)c1=O [IOX2] | 12.6 | 9.33 | 12.7 | 6.07 |
| CCOC(=O)c1ccnc(CNCC(=O)N(CC)CCN(C)C)c1 [KDM5-C70] | 2.7 | 9.21 | 7.74 | 3.66 |

| Structure (SMILES) | area under dose-response curve (HGGX6) | area under dose-response curve (DIPGX29) | area under dose-response curve (HGGX39) | area under dose-response curve (DIPGX37) |
| --- | --- | --- | --- | --- |
| Cc1oncc1C(=O)Nc1ccc(C(F)(F)F)cc1 [LEFLUNOMIDE] | 2.22 | 5.84 | 4.82 | 2.94 |
| CC(N[C@H]1C[C@@H]1c1ccccc1)c1ccc2c(c1)OCCO2 (stereo partly drawn) [LSD1-C76] | 7.75 | 6.56 | 12 | 24 |
| CN(Cc1cnc2nc(N)nc(N)c2n1)c1ccc(C(=O)N[C@@H](CCC(=O)O)C(=O)O)cc1 [METHOTREXATE] | 58.8 | 44.1 | 39.9 | 30.5 |
| Clc1ccc(C(c2ccccc2Cl)C(Cl)Cl)cc1 (stereo not drawn) [MITOTANE] | 12.5 | 12.9 | 8.7 | 16.1 |
| C[C@@H]1C[C@H]2[C@@H]3CCC4=CC(=O)C=C[C@]4(C)[C@@]3(Cl)[C@@H](O)C[C@]2(C)[C@@]1(OC(=O)c1ccco1)C(=O)CCl [MOMETASONE FUROATE] | 8.37 | 42.1 | 20.8 | 40.5 |
| CC(C)Oc1ccc(-c2c[nH]cc2CN(C)CCN)cc1 [MS023] | 14.7 | 10.9 | 8.58 | 10.6 |
| CNCCN1CCC(OCc2ccccc2)CC1 [MS049] | 11.9 | 19.1 | 9.22 | 10.6 |
| COc1cc(C#N)ccc1S(=O)(=O)Nc1ccc2c(c1)cc(C)c(=O)n2C [NI-57] | 15.9 | 13.6 | 22.9 | 7.6 |
| CC1CS(=O)(=O)CCN1/N=C/c1ccc([N+](=O)[O-])o1 (stereo not drawn) [NIFURTIMOX] | 22 | 18.2 | 23.6 | 17.9 |
| Cc1cn(-c2cc(NC(=O)c3ccc(C)c(Nc4nccc(-c5cccnc5)n4)c3)cc(C(F)(F)F)c2)cn1 [NILOTINIB] | 16.8 | 14.3 | 14.9 | 18.9 |
| Cc1ncc(CNC(=O)N(CCCl)N=O)c(N)n1 [NIMUSTINE] | 1.35 | 1.11 | 1.19 | 0 |
| COc1ccc2c(c1OC)C(=O)O[C@@H]2[C@H]1c2c(cc3c(c2OC)OCO3)CCN1C [NOSCAPINE] | 3.61 | 3.97 | 3.21 | 4.1 |
| CN1CCN(c2ccc(-c3cccc(CN4CCOCC4)c3)cc2NC(=O)c2c[nH]c(=O)cc2C(F)(F)F)CC1 [OICR-9429] | 15.6 | 6.88 | 6.53 | 4.44 |
| Cc1ccc(Nc2nccc(N(C)c3ccc4c(C)n(C)nc4c3)n2)cc1S(N)(=O)=O [PAZOPANIB] | 16.8 | 14.4 | 14.8 | 12.6 |
| Nc1nc2[nH]cc(CCc3ccc(C(=O)N[C@@H](CCC(=O)O)C(=O)O)cc3)c2c(=O)[nH]1 [PEMETREXED] | 12.7 | 34.6 | 23.2 | 9.28 |
| OC[C@H]1O[C@@H](n2cnc3c2N=CNC[C@H]3O)C[C@@H]1O [PENTOSTATIN] | 5.39 | 3.92 | 10 | 10.9 |
| COc1ccccc1S(=O)(=O)Nc1ccc2c(c1)CN(C)C(=O)N2 [PFI-1] | 17.1 | 23.7 | 20.6 | 27.8 |
| O=C(/C=C/N1C[C@H]2C[C@@H]1CN2c1ccccn1)c1ccccc1O [PFI-3] | 11.5 | 9.58 | 10.6 | 20.6 |
| COc1ccccc1C(=O)Nc1cc2c(cc1N1CCCC1)n(C)c(=O)n2C [PFI-4] | 18.2 | 21.9 | 20.5 | 6.98 |
| CC(C)N(C[C@H]1O[C@@H](n2cnc3c(N)ncnc32)[C@H](O)[C@@H]1O)[C@H]1C[C@@H](CCc2nc3cc(C(C)(C)C)ccc3[nH]2)C1 [PINOMETOSTAT] | 4.37 | 6.21 | 0.36 | 14.5 |
